According to patent US20230257396A1, “MACROCYCLES AND THEIR USE” (BLOSSOMHILL THERAPEUTICS, INC., priority 2020, published 2023):

Key:
Experiment in all cases: KINOMEscan kinase binding assay (Eurofins/DiscoveRx), % Ctrl
Settings in all cases: 1 μM
kinases [1] = biological target: T1, kinases (Homo sapiens, UniProt P00519, Q252H)
T1 construct: purchased Eurofins/DiscoveRx; host or cells: E. coli BL21-derived host (T7 phage display) for most kinases; HEK-293 for the rest
Outline: (§1)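 Competition binding: DNA- or phage-tagged kinases (T7 phage in E. coli BL21, or HEK-293-expressed) with immobilized biotinylated ligand beads and test compound, 1 h at room temperature. Bead-bound kinase eluted and quantified by qPCR; % Ctrl = (compound − positive control)/(negative control − positive control) ×100 at a single compound concentration.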

kinases [2] = biological target: T2, kinases (Homo sapiens, UniProt P10721, T670I/V559D)
T2 construct: purchased Eurofins/DiscoveRx; host or cells: E. coli BL21-derived host (T7 phage display) for most kinases; HEK-293 for the rest
Outline: as §1

kinases [3] = biological target: T3, kinases (Homo sapiens, UniProt P00533)
T3 construct: purchased Eurofins/DiscoveRx; host or cells: E. coli BL21-derived host (T7 phage display) for most kinases; HEK-293 for the rest
Outline: as §1

kinases [4] = biological target: T4, kinases (Homo sapiens, UniProt P00533, DEL746-750)
T4 construct: purchased Eurofins/DiscoveRx; host or cells: E. coli BL21-derived host (T7 phage display) for most kinases; HEK-293 for the rest
Outline: as §1

kinases [5] = biological target: T5, kinases (Homo sapiens, UniProt P07949, V804M)
T5 construct: purchased Eurofins/DiscoveRx; host or cells: E. coli BL21-derived host (T7 phage display) for most kinases; HEK-293 for the rest
Outline: as §1

kinases [6] = system: kinases
Outline: as §1

kinases [7] = biological target: T6, kinases (Homo sapiens, UniProt P00519, M351T)
T6 construct: purchased Eurofins/DiscoveRx; host or cells: E. coli BL21-derived host (T7 phage display) for most kinases; HEK-293 for the rest
Outline: as §1

kinases [8] = biological target: T7, kinases (Homo sapiens, UniProt P36888, D835V)
T7 construct: purchased Eurofins/DiscoveRx; host or cells: E. coli BL21-derived host (T7 phage display) for most kinases; HEK-293 for the rest
T7 sequence (P36888 27-993 D835V): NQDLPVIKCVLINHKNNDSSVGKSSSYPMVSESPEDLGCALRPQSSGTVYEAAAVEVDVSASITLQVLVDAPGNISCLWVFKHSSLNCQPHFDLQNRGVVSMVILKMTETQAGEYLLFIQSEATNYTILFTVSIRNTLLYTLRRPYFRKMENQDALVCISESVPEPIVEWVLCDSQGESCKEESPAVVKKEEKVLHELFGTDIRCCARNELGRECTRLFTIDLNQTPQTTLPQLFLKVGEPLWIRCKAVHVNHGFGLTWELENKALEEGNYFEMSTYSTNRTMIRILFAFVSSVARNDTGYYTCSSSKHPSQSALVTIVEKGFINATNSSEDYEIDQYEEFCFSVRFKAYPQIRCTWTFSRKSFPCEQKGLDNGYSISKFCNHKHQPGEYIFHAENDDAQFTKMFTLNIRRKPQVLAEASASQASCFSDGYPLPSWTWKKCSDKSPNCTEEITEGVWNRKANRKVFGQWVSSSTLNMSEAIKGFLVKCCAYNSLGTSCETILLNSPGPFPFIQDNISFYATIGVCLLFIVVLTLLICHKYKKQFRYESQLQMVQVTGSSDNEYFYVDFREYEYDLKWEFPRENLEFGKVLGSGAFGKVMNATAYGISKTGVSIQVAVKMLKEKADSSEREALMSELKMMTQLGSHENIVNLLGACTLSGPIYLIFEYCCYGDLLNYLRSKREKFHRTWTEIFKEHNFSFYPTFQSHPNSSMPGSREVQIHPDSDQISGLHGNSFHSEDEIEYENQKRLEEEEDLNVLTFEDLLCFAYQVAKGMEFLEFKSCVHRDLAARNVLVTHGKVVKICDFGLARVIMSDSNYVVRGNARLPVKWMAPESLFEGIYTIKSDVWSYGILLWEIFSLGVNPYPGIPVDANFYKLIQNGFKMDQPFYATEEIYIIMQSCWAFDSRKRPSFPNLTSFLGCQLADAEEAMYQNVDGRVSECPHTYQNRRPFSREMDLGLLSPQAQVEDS
Outline: as §1

kinases [9] = biological target: T8, kinases (Homo sapiens, UniProt P10721, A829P)
T8 construct: purchased Eurofins/DiscoveRx; host or cells: E. coli BL21-derived host (T7 phage display) for most kinases; HEK-293 for the rest
Outline: as §1

kinases [10] = biological target: T9, kinases (Homo sapiens, UniProt P10721, V559D/V654A)
T9 construct: purchased Eurofins/DiscoveRx; host or cells: E. coli BL21-derived host (T7 phage display) for most kinases; HEK-293 for the rest
Outline: as §1

T5 sequence (P07949 29-1114 V804M): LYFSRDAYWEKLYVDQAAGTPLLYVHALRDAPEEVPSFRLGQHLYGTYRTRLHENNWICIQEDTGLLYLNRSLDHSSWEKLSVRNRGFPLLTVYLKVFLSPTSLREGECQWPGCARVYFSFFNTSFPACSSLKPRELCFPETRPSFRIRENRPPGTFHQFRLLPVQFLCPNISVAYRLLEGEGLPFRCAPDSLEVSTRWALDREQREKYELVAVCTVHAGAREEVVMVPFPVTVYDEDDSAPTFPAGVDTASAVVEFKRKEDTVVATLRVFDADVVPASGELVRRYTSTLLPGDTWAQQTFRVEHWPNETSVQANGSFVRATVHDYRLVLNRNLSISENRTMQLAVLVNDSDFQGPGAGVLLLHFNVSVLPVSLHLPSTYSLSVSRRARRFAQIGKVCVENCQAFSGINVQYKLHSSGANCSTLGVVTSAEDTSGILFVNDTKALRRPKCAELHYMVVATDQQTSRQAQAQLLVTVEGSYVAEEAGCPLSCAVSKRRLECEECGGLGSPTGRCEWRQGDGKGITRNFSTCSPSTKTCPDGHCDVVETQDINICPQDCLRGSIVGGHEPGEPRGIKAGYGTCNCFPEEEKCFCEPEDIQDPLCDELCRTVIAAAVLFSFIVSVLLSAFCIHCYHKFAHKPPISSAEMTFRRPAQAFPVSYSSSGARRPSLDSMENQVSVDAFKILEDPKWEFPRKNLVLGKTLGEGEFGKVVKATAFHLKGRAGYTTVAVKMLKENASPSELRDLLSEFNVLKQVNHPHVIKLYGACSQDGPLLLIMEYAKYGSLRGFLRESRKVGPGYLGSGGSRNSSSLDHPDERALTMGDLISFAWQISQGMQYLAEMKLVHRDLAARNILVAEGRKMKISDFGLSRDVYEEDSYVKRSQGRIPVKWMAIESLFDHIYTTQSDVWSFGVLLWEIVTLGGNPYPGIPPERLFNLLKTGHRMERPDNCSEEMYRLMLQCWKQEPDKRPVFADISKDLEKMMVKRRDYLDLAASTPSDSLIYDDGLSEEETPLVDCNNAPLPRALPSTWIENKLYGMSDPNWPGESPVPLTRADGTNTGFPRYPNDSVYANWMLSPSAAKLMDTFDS
T2 sequence (P10721 26-976 V559D/T670I): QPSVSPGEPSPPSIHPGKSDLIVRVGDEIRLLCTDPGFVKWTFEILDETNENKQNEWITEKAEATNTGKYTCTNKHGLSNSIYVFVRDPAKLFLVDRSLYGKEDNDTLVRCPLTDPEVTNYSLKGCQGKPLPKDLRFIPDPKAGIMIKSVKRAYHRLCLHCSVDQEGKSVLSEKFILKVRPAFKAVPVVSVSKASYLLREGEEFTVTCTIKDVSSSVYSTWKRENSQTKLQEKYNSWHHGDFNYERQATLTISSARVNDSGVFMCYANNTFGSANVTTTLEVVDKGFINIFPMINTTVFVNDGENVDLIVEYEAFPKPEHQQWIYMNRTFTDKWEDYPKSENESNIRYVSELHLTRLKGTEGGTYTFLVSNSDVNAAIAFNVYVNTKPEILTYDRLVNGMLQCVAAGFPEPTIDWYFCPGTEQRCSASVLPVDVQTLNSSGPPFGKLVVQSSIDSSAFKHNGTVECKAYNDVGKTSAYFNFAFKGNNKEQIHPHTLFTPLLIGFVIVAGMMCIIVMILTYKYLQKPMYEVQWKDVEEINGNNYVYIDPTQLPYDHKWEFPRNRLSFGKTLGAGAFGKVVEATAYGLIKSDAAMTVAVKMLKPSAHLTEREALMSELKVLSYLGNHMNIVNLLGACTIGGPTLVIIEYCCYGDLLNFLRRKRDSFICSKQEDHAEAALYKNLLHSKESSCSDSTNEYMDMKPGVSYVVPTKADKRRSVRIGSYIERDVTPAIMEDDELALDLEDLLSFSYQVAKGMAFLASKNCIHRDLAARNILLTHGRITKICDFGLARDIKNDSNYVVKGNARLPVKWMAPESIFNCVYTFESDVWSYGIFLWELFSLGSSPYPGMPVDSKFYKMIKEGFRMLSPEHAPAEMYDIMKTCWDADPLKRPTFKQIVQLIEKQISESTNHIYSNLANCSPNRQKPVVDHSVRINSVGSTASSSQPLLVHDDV
T9 sequence (P10721 26-976 V559D/V654A): as the sequence (P10721 26-976 V559D/T670I) above, with V629A, I645T counted along it
T8 sequence (P10721 26-976 A829P): as the sequence (P10721 26-976 V559D/T670I) above, with D534V, I645T, A804P counted along it

Row | SMILES | % Ctrl, ABL1(Q252H)-nonphosphorylated (kinases [1]; ABL1(Q252H)-nonphosphorylated) [% Ctrl] | % Ctrl, ABL1(Q252H)-phosphorylated (kinases [1]; ABL1(Q252H)-phosphorylated) [% Ctrl] | % Ctrl, KIT(V559D, T670I) (kinases [2]; KIT(V559D, T670I)) [% Ctrl] | % Ctrl, EGFR (kinases [3]; EGFR) [% Ctrl] | % Ctrl, EGFR(E746-A750del) (kinases [4]; EGFR(E746-A750del)) [% Ctrl] | % Ctrl, RET(V804M) (kinases [5]; RET(V804M)) [% Ctrl] | % Ctrl, EGFR(L747-E749del, A750P) (kinases [6]; EGFR(L747-E749del, A750P)) [% Ctrl] | % Ctrl, EGFR(L747-S752del, P753S) (kinases [6]; EGFR(L747-S752del, P753S)) [% Ctrl] | % Ctrl, EGFR(L747-T751del, Sins) (kinases [6]; EGFR(L747-T751del, Sins)) [% Ctrl] | % Ctrl, FLT3(ITD) (kinases [6]; FLT3(ITD)) [% Ctrl] | % Ctrl, FLT3(ITD, D835V) (kinases [6]; FLT3(ITD, D835V)) [% Ctrl] | % Ctrl, FLT3(ITD, F691L) (kinases [6]; FLT3(ITD, F691L)) [% Ctrl] | % Ctrl, ABL1(M351T)-phosphorylated (kinases [7]; ABL1(M351T)-phosphorylated) [% Ctrl] | % Ctrl, FLT3(D835V) (kinases [8]; FLT3(D835V)) [% Ctrl] | % Ctrl, KIT(A829P) (kinases [9]; KIT(A829P)) [% Ctrl] | % Ctrl, KIT(V559D, V654A) (kinases [10]; KIT(V559D, V654A)) [% Ctrl] | further results
1 | CN1CCOCCOc2cc3c(cc2Cl)NC(=O)/C3=C\c2[nH]ccc2C1=O [Ex. 143, [16a(17)Z]-19-chloro-2,5-dimethyl-6,7,9,10-tetrahydro-1H-12,14-(ethanediylidene)dipyrrolo[3,2-i:3′,4′-l][1,4,7]oxathiazacyclopentadecine-4,16(5H,15H)-dione] |  |  |  |  |  |  |  |  |  |  |  |  |  |  |  |  | % Ctrl, ABL1(Q252H)-nonphosphorylated (kinases [1]; target ABL1(Q252H)-nonphosphorylated): 4.1 % Ctrl; % Ctrl, ABL1(Q252H)-phosphorylated (kinases [1]; target ABL1(Q252H)-phosphorylated): 5.2 % Ctrl; % Ctrl, KIT(V559D, T670I) (kinases [2]; target KIT(V559D, T670I)): 1.6 % Ctrl; % Ctrl, EGFR (kinases [3]; target EGFR): 100 % Ctrl; % Ctrl, EGFR(E746-A750del) (kinases [4]; target EGFR(E746-A750del)): 65 % Ctrl; % Ctrl, RET(V804M) (kinases [5]; target RET(V804M)): 31 % Ctrl; % Ctrl, EGFR(L747-E749del, A750P) (kinases [6]; target EGFR(L747-E749del, A750P)): 90 % Ctrl; % Ctrl, EGFR(L747-S752del, P753S) (kinases [6]; target EGFR(L747-S752del, P753S)): 89 % Ctrl; % Ctrl, EGFR(L747-T751del, Sins) (kinases [6]; target EGFR(L747-T751del, Sins)): 96 % Ctrl; % Ctrl, FLT3(ITD) (kinases [6]; target FLT3(ITD)): 2.5 % Ctrl; % Ctrl, FLT3(ITD, D835V) (kinases [6]; target FLT3(ITD, D835V)): 0.6 % Ctrl; % Ctrl, FLT3(ITD, F691L) (kinases [6]; target FLT3(ITD, F691L)): 1 % Ctrl; % Ctrl, ABL1(M351T)-phosphorylated (kinases [7]; target ABL1(M351T)-phosphorylated): 13 % Ctrl; % Ctrl, FLT3(D835V) (kinases [8]; target FLT3(D835V)): 0.3 % Ctrl; % Ctrl, KIT(A829P) (kinases [9]; target KIT(A829P)): 51 % Ctrl; % Ctrl, KIT(V559D, V654A) (kinases [10]; target KIT(V559D, V654A)): 33 % Ctrl
2 | Cc1cc2c([nH]1)/C=C1\C(=O)Nc3ccc(nc31)-c1ccccc1OCCCNC2=O [Ex.22, [3a(4)Z]-6-methyl-9,10,11,12-tetrahydro-1,18-(ethanediylidene)dipyrrolo[3,2-g:3′,4′-j][1,5,12]benzoxadiazacyclopentadecine-3,8(2H,5H)-dione] | 87 | 74 | 100 | 64 | 97 | 93 | 73 | 95 | 81 | 100 | 71 | 100 | 100 | 35 | 100 | 100 | 
3 | Cc1cc2c([nH]1)/C=C1\C(=O)Nc3cc(Cl)c(cc31)OCCO[C@@H](C(=O)N(C)C)CN(C)C2=O [Ex. 137, [7R,16a(17)Z]-19-chloro-N,N,2,5-tetramethyl-4,16-dioxo-4,5,6,7,9,10,15,16-octahydro-1H-12,14-(ethanediylidene)dipyrrolo[3,2-i:3′,4′-l][1,4,7]dioxazacyclopentadecine-7-carboxamide] | 48 | 51 | 27 | 100 | 98 | 57 | 100 | 100 | 100 | 44 | 9.1 | 29 | 51 | 8.5 | 75 | 73 | 
